ChEMBL document CHEMBL1201862, “PubChem BioAssay data set” (2004)
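Five compound concentrations were applied to cells in 96-well plates for 48 hours; endpoints were derived by simple linear interpolation of the resulting dose-response curve. At the GI50, growth is halved.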 Active and inactive are the calls of the source. No stated cut-off is given here; in the data, active = GI50 up to about 1.1 µM and inactive = higher.

Key:
Assay in all cases: NCI-60 cell line screen, 48 h
NCI-H23 = test system: NCI-H23
KM12 = test system: KM12
UO-31 = test system: UO-31
SF-295 = test system: SF-295
NCI-H522 = test system: NCI-H522
HCT-15 = test system: HCT-15
RXF 393 = test system: RXF 393
M14 = test system: M14
U-251 = test system: U-251
UACC-257 = test system: UACC-257
786-0 = test system: 786-0
SNB-75 = test system: SNB-75
SK-MEL-5 = test system: SK-MEL-5
T47D = test system: T47D
TK-10 = test system: TK-10
Hs-578T = test system: Hs-578T
HOP-92 = test system: HOP-92
NCI-H460 = test system: NCI-H460
OVCAR-4 = test system: OVCAR-4

Measured: GI50

CNC(=O)N1CN(c2ccccc2)C2(CCN(CCCC(=O)c3ccc(F)cc3)CC2)C1=O
inactive: NCI-H23 23.4 µM | KM12 20.9 µM | UO-31 7.08 µM | SF-295 16.8 µM | NCI-H522 24.9 µM | RXF 393 20.5 µM | M14 16.5 µM | U-251 21.5 µM | UACC-257 7.64 µM | 786-0 26.1 µM | SNB-75 29.3 µM | SK-MEL-5 11.8 µM | T47D 4.98 µM | TK-10 18 µM
15.5 µM: HCT-15

NC(Cc1ccc(O)cn1)C(=O)NC(C(=O)O)c1ccccc1 (stereo not drawn)
> 100 µM: HCT-15
inactive: NCI-H23 > 100 µM | KM12 > 100 µM | Hs-578T > 100 µM | UO-31 > 100 µM | SF-295 > 100 µM | NCI-H522 > 100 µM | RXF 393 > 100 µM | U-251 > 100 µM | UACC-257 > 100 µM | HOP-92 > 100 µM | NCI-H460 > 100 µM | 786-0 > 100 µM | SNB-75 > 100 µM | SK-MEL-5 > 100 µM | OVCAR-4 > 100 µM | TK-10 > 100 µM

COC1CCN(N(C)C)O1 (stereo not drawn)
> 100 µM: HCT-15
inactive: NCI-H23 > 100 µM | KM12 > 100 µM | Hs-578T > 100 µM | UO-31 > 100 µM | SF-295 > 100 µM | NCI-H522 > 100 µM | RXF 393 > 100 µM | M14 > 100 µM | U-251 > 100 µM | UACC-257 > 100 µM | NCI-H460 > 100 µM | 786-0 > 100 µM | SNB-75 > 100 µM | SK-MEL-5 > 100 µM | OVCAR-4 > 100 µM | T47D > 100 µM | TK-10 > 100 µM

COC(=O)[C@H](Cc1c[nH]c2ccccc12)NP(=O)(O)OCC1C=CC(n2cc(C)c(=O)[nH]c2=O)O1 (stereo partly drawn)
> 100 µM: HCT-15
inactive: NCI-H23 > 100 µM | KM12 > 100 µM | Hs-578T > 100 µM | U-251 > 100 µM | HOP-92 > 100 µM | 786-0 > 100 µM | SNB-75 > 100 µM | SK-MEL-5 > 100 µM | OVCAR-4 > 100 µM | T47D > 100 µM

O=C(O)c1cc(O)c2c(c1)Cc1cccc(O)c1C2=O
17.2 µM: HCT-15
inactive: NCI-H23 28.1 µM | UO-31 17.4 µM | SF-295 20.3 µM | M14 23.4 µM | U-251 17.6 µM | UACC-257 26.7 µM | HOP-92 17.2 µM | NCI-H460 23.3 µM | 786-0 30.5 µM | SNB-75 14.1 µM | SK-MEL-5 21.1 µM | OVCAR-4 38 µM | T47D 38.6 µM | TK-10 34.4 µM

O=C(COc1ccc(Cl)cc1Cl)N/N=C/C=C/c1ccc([N+](=O)[O-])o1
inactive: NCI-H23 3.18 µM | KM12 4.86 µM | Hs-578T 1.87 µM | UO-31 5.05 µM | SF-295 23.3 µM | RXF 393 6.07 µM | M14 2.72 µM | U-251 15.7 µM | NCI-H460 8.39 µM | 786-0 12.3 µM | SNB-75 14.3 µM | SK-MEL-5 1.96 µM | OVCAR-4 4.35 µM | T47D > 100 µM | TK-10 7.67 µM
active: NCI-H522 1.04 µM
3.37 µM: HCT-15

Clc1cc2c(cc1Cl)CC(NCCN1CCCC1)CC2 (stereo not drawn)
12.9 µM: HCT-15
inactive: NCI-H23 16 µM | KM12 15.2 µM | Hs-578T 21.2 µM | UO-31 11.1 µM | SF-295 16.1 µM | NCI-H522 17.1 µM | M14 12 µM | U-251 15.9 µM | UACC-257 7.82 µM | NCI-H460 16.4 µM | 786-0 13.2 µM | SK-MEL-5 3.74 µM | OVCAR-4 17.2 µM | T47D 10.4 µM | TK-10 14.4 µM

COC(=O)C1Cc2c([nH]c3ccccc23)-c2[nH]c3ccccc3c2CC(NC(C)=O)C(=O)N2CCCC2C(=O)N1 (stereo not drawn)
inactive: NCI-H23 > 100 µM | Hs-578T > 100 µM | UO-31 > 100 µM | SF-295 > 100 µM | NCI-H522 36.1 µM | RXF 393 > 100 µM | U-251 > 100 µM | UACC-257 > 100 µM | NCI-H460 > 100 µM | 786-0 > 100 µM | SNB-75 > 100 µM | SK-MEL-5 > 100 µM | OVCAR-4 > 100 µM | T47D > 100 µM | TK-10 > 100 µM
> 100 µM: HCT-15

CN(C)c1ccc(/C=C2\N=C(c3ccccc3)N(c3ccc4c(c3)Sc3cc(N5C(=O)/C(=C/c6ccc(N(C)C)cc6)N=C5c5ccccc5)ccc3N4)C2=O)cc1
49.2 µM: HCT-15
inactive: KM12 > 100 µM | Hs-578T 27.1 µM | UO-31 18.2 µM | SF-295 15.2 µM | M14 21.2 µM | U-251 15.6 µM | UACC-257 19.7 µM | HOP-92 18.3 µM | NCI-H460 23.9 µM | 786-0 22.9 µM | SNB-75 11.9 µM | SK-MEL-5 17.9 µM | OVCAR-4 22.6 µM | T47D 19.6 µM | TK-10 17.2 µM

CCCCCCCCCCCCCCCC(=O)Nc1ccn(C2CC(OP(=O)(O)OCC3OC(n4cc(F)c(=O)[nH]c4=O)CC3OC(C)=O)C(CO)O2)c(=O)n1 (stereo not drawn)
14.7 µM: HCT-15
active: UO-31 0.565 µM | NCI-H460 0.0664 µM
inactive: NCI-H23 3.86 µM | KM12 15 µM | Hs-578T 12.1 µM | SF-295 1.81 µM | NCI-H522 9.04 µM | RXF 393 > 41 µM | M14 11.4 µM | U-251 15.7 µM | UACC-257 > 57.1 µM | 786-0 6.47 µM | SNB-75 13.7 µM | SK-MEL-5 11.5 µM | OVCAR-4 44.7 µM | T47D 20.8 µM | TK-10 > 64 µM

COC(=O)[C@H](Cc1c[nH]c2ccccc12)NP(=O)(OCCC#N)OCC1OC(n2cc(C)c(=O)[nH]c2=O)CC1N=[N+]=[N-] (stereo partly drawn)
inactive: NCI-H23 > 100 µM | KM12 > 100 µM | UO-31 > 100 µM | SF-295 > 100 µM | NCI-H522 > 100 µM | RXF 393 > 100 µM | M14 > 100 µM | U-251 > 100 µM | UACC-257 > 100 µM | HOP-92 > 100 µM | NCI-H460 > 100 µM | 786-0 > 100 µM | SNB-75 > 100 µM | SK-MEL-5 > 100 µM | OVCAR-4 > 100 µM | T47D > 100 µM | TK-10 > 100 µM
> 100 µM: HCT-15

CCN1CCC(C)OP1(=O)Cc1ccccc1 (stereo not drawn)
> 100 µM: HCT-15
inactive: NCI-H23 > 100 µM | KM12 > 100 µM | UO-31 > 100 µM | SF-295 > 100 µM | M14 > 100 µM | U-251 > 100 µM | UACC-257 > 100 µM | NCI-H460 > 100 µM | 786-0 > 100 µM | SK-MEL-5 > 100 µM | OVCAR-4 > 100 µM | T47D > 100 µM | TK-10 > 100 µM

COc1ccc2c(c1)CC[C@@H]1[C@@H]2CC[C@]2(C)C(=O)/C(=C/c3ccc(N(C)C)cc3)C[C@@H]12
inactive: NCI-H23 33 µM | KM12 84.3 µM | UO-31 98.9 µM | SF-295 40.2 µM | RXF 393 27 µM | M14 61.2 µM | U-251 46.1 µM | HOP-92 24.2 µM | NCI-H460 39.8 µM | 786-0 29.2 µM | SNB-75 24.2 µM | SK-MEL-5 73.1 µM | OVCAR-4 37.2 µM | T47D 44.1 µM | TK-10 33.2 µM
> 100 µM: HCT-15

O=C1C[C@@H]2CCCC[C@@H]2C12SCCS2
inactive: NCI-H23 95.1 µM | KM12 > 100 µM | UO-31 32.1 µM | SF-295 > 100 µM | NCI-H522 69 µM | RXF 393 54.2 µM | U-251 > 100 µM | UACC-257 > 100 µM | NCI-H460 > 100 µM | 786-0 > 100 µM | SNB-75 61.9 µM | SK-MEL-5 92.5 µM | OVCAR-4 > 100 µM | TK-10 > 100 µM
> 100 µM: HCT-15

Nc1nc(N)c2ncn(-c3ccc(Cl)cc3)c2n1
24.8 µM: HCT-15
inactive: NCI-H23 61 µM | KM12 26.8 µM | UO-31 32.3 µM | SF-295 33.7 µM | NCI-H522 28.6 µM | RXF 393 19.3 µM | M14 39 µM | U-251 49.1 µM | UACC-257 > 100 µM | HOP-92 24.8 µM | 786-0 70.3 µM | SNB-75 10.1 µM | SK-MEL-5 23.6 µM | OVCAR-4 80.5 µM | T47D 25.5 µM | TK-10 20 µM

C[C@]12CC[C@@H]3c4ccc(O)cc4CC[C@H]3[C@@H]1C/C(=C\c1ccc([N+](=O)[O-])cc1)C2=O
inactive: NCI-H23 78.9 µM | KM12 42.6 µM | UO-31 77.1 µM | SF-295 > 100 µM | NCI-H522 24.1 µM | RXF 393 15.9 µM | M14 53.3 µM | U-251 40.1 µM | UACC-257 34.8 µM | NCI-H460 48 µM | 786-0 > 100 µM | SNB-75 50.7 µM | SK-MEL-5 41.5 µM | OVCAR-4 > 100 µM | T47D 40 µM | TK-10 80 µM
67 µM: HCT-15

O=C(c1ccccc1)c1ccc(COc2ccc(C(c3c(O)c4ccccc4oc3=O)c3c(O)c4ccccc4oc3=O)cc2)cc1
37.3 µM: HCT-15
inactive: NCI-H23 17.4 µM | KM12 16.1 µM | Hs-578T 29.4 µM | UO-31 27.7 µM | SF-295 19.4 µM | NCI-H522 18.2 µM | RXF 393 19 µM | U-251 89.3 µM | UACC-257 19.4 µM | NCI-H460 19.9 µM | 786-0 23.6 µM | SNB-75 18.5 µM | SK-MEL-5 18.8 µM | OVCAR-4 30.2 µM | T47D 20.5 µM | TK-10 17.1 µM
